# pIC50: −log10 of the molar value.
# Legend:
# OVCAR-8 [1] = test: Chemo-sensitizing activity against human OVCAR-8 cells assessed as reversal fold at 5 uM measured after 72 hrs in presence of paclitaxel by CCK8 assay relative to control; type: functional
# KB-V1 [2] = test: Chemo-sensitizing activity against ABCB1-oveexpressing human KB-V1 cells assessed as reversal fold at 5 uM measured after 72 hrs in presence of colchicine by CCK8 assay relative to control; type: functional
# NCI-H460 [3] = test: Chemo-sensitizing activity against mitoxantrone-selected ABCG2-overexpressing human NCI-H460/MX20 cells assessed as reversal fold at 1 uM measured after 72 hrs in presence of mitoxantrone by CCK8 assay relative to control; type: functional
# HEK293 [4] = test: Chemo-sensitizing activity against human HEK293 cells assessed as reversal fold at 5 uM measured after 72 hrs in presence of mitoxatrone by CCK8 assay relative to control; type: functional
# HEK293 [5] = test: Cytotoxicity against ABCG2-overexpressing human HEK293/482R cells assessed as reduction in cell viability measured after 72 hrs by CCK8 assay; type: ADME, cell-based; settings: HEK293, 72 h
# NCI-H460 [6] = test: Chemo-sensitizing activity against human NCI-H460 cells assessed as reversal fold at 2 uM measured after 72 hrs in presence of topotecan by CCK8 assay relative to control; type: functional
# NCI-H460 [7] = test: Chemo-sensitizing activity against mitoxantrone-selected ABCG2-overexpressing human NCI-H460/MX20 cells assessed as reversal fold at 5 uM measured after 72 hrs in presence of SN-38 by CCK8 assay relative to control; type: functional
# HEK293 [8] = test: Chemo-sensitizing activity against ABCG2-overexpressing human HEK293 cells assessed as reversal fold at 5 uM measured after 72 hrs in presence of topotecan by CCK8 assay relative to control; type: functional
# HEK293 [9] = test: Chemo-sensitizing activity against human HEK293 cells assessed as reversal fold at 1 uM measured after 72 hrs in presence of topotecan by CCK8 assay relative to control; type: functional
# NCI-H460 [10] = test: Chemo-sensitizing activity against mitoxantrone-selected ABCG2-overexpressing human NCI-H460/MX20 cells assessed as reversal fold at 2 uM measured after 72 hrs in presence of topotecan by CCK8 assay relative to control; type: functional
# NCI-H460 [11] = test: Chemo-sensitizing activity against mitoxantrone-selected ABCG2-overexpressing human NCI-H460/MX20 cells assessed as reversal fold at 2 uM measured after 72 hrs in presence of mitoxantrone by CCK8 assay relative to control; type: functional
# NCI/ADR-RES [12] = test: Chemo-sensitizing activity against ABCB1-overexpressing human NCI/ADR-RES cells assessed as reversal fold at 1 uM measured after 72 hrs in presence of paclitaxel by CCK8 assay relative to control; type: functional
# KB 3-1 = test: Chemo-sensitizing activity against human KB 3-1 cells assessed as reversal fold at 2 uM measured after 72 hrs in presence of paclitaxel by CCK8 assay relative to control; type: functional
# KB-V1 [13] = test: Chemo-sensitizing activity against ABCB1-oveexpressing human KB-V1 cells assessed as reversal fold at 2 uM measured after 72 hrs in presence of colchicine by CCK8 assay relative to control; type: functional
# HEK293 [14] = test: Chemo-sensitizing activity against ABCG2-overexpressing human HEK293 cells assessed as reversal fold at 1 uM measured after 72 hrs in presence of topotecan by CCK8 assay relative to control; type: functional
# OVCAR-8 [15] = test: Chemo-sensitizing activity against human OVCAR-8 cells assessed as reversal fold at 2 uM measured after 72 hrs in presence of paclitaxel by CCK8 assay relative to control; type: functional
# [16] = Cytotoxicity against human NCI-H460 cells assessed as cell viability at 1 to 5 uM measured after 72 hrs by CCK8 assay; type: cell-based; settings: dose 1-5 µM, read-out: Activity
# ABCG2 = target: T1, ABCG2 (Homo sapiens, UniProt Q9UNQ0); test: Inhibition of ABCG2 in becatecarin-selected ABCG2-overexpressing human A549/Bec150 cells assessed as increase in intracellular mitoxantrone accumulation at 20 uM incubated for 1 hr in presence of mitoxantrone by flow cytometry; type: cell-based; settings: probe mitoxantrone
# T1 sequence (Q9UNQ0 whole entry): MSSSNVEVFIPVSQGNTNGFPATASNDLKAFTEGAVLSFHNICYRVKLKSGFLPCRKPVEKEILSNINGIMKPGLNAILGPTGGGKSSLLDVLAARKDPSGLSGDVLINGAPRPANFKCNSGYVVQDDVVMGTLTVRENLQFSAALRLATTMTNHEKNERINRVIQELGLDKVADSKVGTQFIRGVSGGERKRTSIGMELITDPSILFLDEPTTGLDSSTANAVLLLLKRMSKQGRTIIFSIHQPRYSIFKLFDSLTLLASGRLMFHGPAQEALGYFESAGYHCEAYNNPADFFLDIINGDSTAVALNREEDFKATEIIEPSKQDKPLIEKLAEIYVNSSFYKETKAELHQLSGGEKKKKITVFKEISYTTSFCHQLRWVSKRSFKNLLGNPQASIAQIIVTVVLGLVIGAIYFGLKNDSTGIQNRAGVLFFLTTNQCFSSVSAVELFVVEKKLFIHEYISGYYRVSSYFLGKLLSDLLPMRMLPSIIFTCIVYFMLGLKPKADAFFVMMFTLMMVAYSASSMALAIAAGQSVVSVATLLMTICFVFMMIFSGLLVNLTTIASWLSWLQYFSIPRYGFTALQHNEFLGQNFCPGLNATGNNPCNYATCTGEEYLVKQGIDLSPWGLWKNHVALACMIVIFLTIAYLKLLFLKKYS
# A549 = test: Chemo-sensitizing activity against becatecarin-selected ABCG2-overexpressing human A549/Bec150 cells assessed as reversal fold at 2 uM measured after 72 hrs in presence of mitoxantrone by CCK8 assay relative to control; type: functional
# HEK293 [17] = test: Chemo-sensitizing activity against human HEK293 cells assessed as reversal fold at 5 uM measured after 72 hrs in presence of paclitaxel by CCK8 assay relative to control; type: functional
# HEK293 [18] = test: Chemo-sensitizing activity against human HEK293 cells assessed as reversal fold at 2 uM measured after 72 hrs in presence of SN-38 by CCK8 assay relative to control; type: functional
# NCI/ADR-RES [19] = test: Chemo-sensitizing activity against ABCB1-overexpressing human NCI/ADR-RES cells assessed as reversal fold at 5 uM measured after 72 hrs in presence of vincristine by CCK8 assay relative to control; type: functional
# OVCAR-8 [20] = test: Chemo-sensitizing activity against human OVCAR-8 cells assessed as reversal fold at 2 uM measured after 72 hrs in presence of colchicine by CCK8 assay relative to control; type: functional
# HEK293 [21] = test: Chemo-sensitizing activity against ABCB1-overexpressing human HEK293/MDR19 cells assessed as reversal fold at 2 uM measured after 72 hrs in presence of vincristine by CCK8 assay relative to control; type: functional
# HEK293 [22] = test: Chemo-sensitizing activity against human HEK293 cells assessed as reversal fold at 2 uM measured after 72 hrs in presence of mitoxatrone by CCK8 assay relative to control; type: functional
# NCI-H460 [23] = test: Chemo-sensitizing activity against human NCI-H460 cells assessed as reversal fold at 2 uM measured after 72 hrs in presence of SN-38 by CCK8 assay relative to control; type: functional
smiles,measurement,setting,value
C=C(C)[C@H](CC=C(C)C)Cc1c(O)cc(O)c2c1O[C@H](c1ccc(O)cc1O)CC2=O [SOPHORAFLAVANONE G],fold change (FC),OVCAR-8 [1],1.1
same,fold change (FC),KB-V1 [2],0.8
same,fold change (FC),NCI-H460 [3],1.9
same,fold change (FC),HEK293 [4],1.1
same,pIC50,HEK293 [5],4.30
same,fold change (FC),NCI-H460 [6],2.1
same,fold change (FC),NCI-H460 [7],10.1
same,fold change (FC),HEK293 [8],5
same,fold change (FC),HEK293 [9],0.9
same,fold change (FC),NCI-H460 [10],7.2
same,fold change (FC),NCI-H460 [11],2.7
same,fold change (FC),NCI/ADR-RES [12],1
same,fold change (FC),KB 3-1,1.1
same,fold change (FC),KB-V1 [13],0.9
same,fold change (FC),HEK293 [14],1.7
same,fold change (FC),OVCAR-8 [15],1
same,"viability at 72 h, 5 µM",[16],> 90%
same,"inhibition at 1 h, 20 µM",ABCG2,100%
same,fold change (FC),A549,5.9
same,fold change (FC),HEK293 [17],1.2
same,fold change (FC),HEK293 [18],0.9
same,fold change (FC),NCI/ADR-RES [19],1.1
same,fold change (FC),OVCAR-8 [20],1
same,fold change (FC),HEK293 [21],0.9
same,fold change (FC),HEK293 [22],0.9
same,fold change (FC),NCI-H460 [23],1.7

# Source: ChEMBL document CHEMBL5055643, “Sophoraflavanone G Resensitizes ABCG2-Overexpressing Multidrug-Resistant Non-Small-Cell Lung Cancer Cells to Chemotherapeutic Drugs” (J Nat Prod, 2021)
